{"source": "patent US20240269116A1", "about": "“USE OF MMP INHIBITORS FOR TREATING ACUTE RESPIRATORY DISTRESS SYNDROME” (Foresee Pharmaceuticals Co., Ltd., priority 2021, published 2024)", "tested_on": "LPS-induced acute lung injury (ALI)", "assay": "LPS-induced mice acute lung injury (ALI) model, BAL fluid cell counts and lung histology at 24 hours", "type": "in vivo, Male C57BL/6 mice", "method": "The compound of formula (F-I) was evaluated for the therapeutic efficacy in the LPS-induced mice ALI model. In this study, animals were anesthetized with 2.5% isoflurane inhalation. LPS was used to create ALI at the dose of 3 mg/kg in 50 μl via a direct intratracheal injection. For sham animals, an equal volume of saline solution was directly injected into the trachea. After LPS injection, the test article compound of formula (F-I) was dosed at different single oral doses and different therapeutic time points. Male C57BL/6 mice (n=100) were used in this study. DEX was used as positive control. Animals were randomly divided into 10 groups and dose regimens are described in Table 1. At 24 hours after injection, all animals were euthanized and processed for bronchoalveolar lavage (BAL) fluid collection from bilateral lungs and formalin-fixation of lung tissue pathology studies. [table]", "key": {"[1]": {"details": "lung histology at 24 hours of ALI, treatment at 4 or 8 hours of ALI, all dosages, vs model"}, "[2]": {"details": "single oral dose at 4 or 8 hours of ALI (F-I 1, 3, 10 mg/kg; DEX 3 mg/kg), BAL at 24 hours, vs Vehicle group"}}, "note": "Entries after “also recorded” stand apart in the source; their conditions may differ."}
{"smiles": "Cc1cccc(COc2ccc(Sc3ccoc3C3NC(=O)NC3=O)cc2)c1", "note": "(stereo not drawn) [compound of formula (F-I)]", "values": [{"measurement": "therapeutic efficacy at lower doses", "setting": "1 mg/kg via oral gavage at 4 or 8 hours of ALI", "result": "significant therapeutic efficacy"}, {"measurement": "overall efficacy at 10 mg/kg", "setting": "10 mg/kg at 4 hours and 8 hours of ALI, conclusion", "result": "better"}, {"measurement": "dose dependence of lung tissue protection", "setting": "1, 3, 10 mg/kg, dosing at 4 or 8 hours of ALI, histology", "result": "no clear dose-dependent lung tissue protection"}, {"measurement": "overall therapeutic efficacy, dosing at 8 hours vs 4 hours of ALI", "setting": "conclusion, dosing at 8 hours compared with 4 hours of ALI", "result": "slightly better"}, {"measurement": "efficacy in BAL fluid analysis, comparison of doses", "setting": "dose of 10 mg/kg compared with 1 and 3 mg/kg", "result": "best efficacy"}, {"measurement": "alveolar damages (lung histology)", "setting": "[1]", "result": "reduction"}, {"measurement": "bronchial and arteriole damages (lung histology)", "setting": "[1]", "result": "reduction"}, {"measurement": "total lung injury (lung histology)", "setting": "[1]", "result": "reduction"}, {"measurement": "neutrophils in BAL fluid", "setting": "[2]", "result": "clear trend of dose-dependent reduction; also recorded: reduced"}, {"measurement": "total inflammatory cells in BAL fluid", "setting": "[2]", "result": "clear trend of dose-dependent reduction; also recorded: reduced"}, {"measurement": "effect on BAL fluid cells, treatment at 8 hours vs 4 hours of ALI", "setting": "treatment at 8 hours of ALI compared to 4 hours of ALI", "result": "better effect than that at 4 hours of ALI"}, {"measurement": "lung histology efficacy, treatment at 8 hours vs 4 hours of ALI", "setting": "treatment at 8 hours of ALI compared to 4 hours of ALI, histology at 24 hours", "result": "better efficacy"}]}
